Test results taken from patent US20090023735A1, “Sulphonamide Derivatives” (priority 2005, published 2009).
Structures can show the parent of a compound that is named as a salt.

Columns and labels:
[1] = biological target: T1, α2β1 integrin (Homo sapiens, UniProt P17301); test: CHO-α2β1 cell adhesion on type I collagen; assay type: cell-based; settings: CHO cells expressing wild type α2 integrin on collagen type I coated wells, 2 h
T1 construct: expressed in transfected cells; host or cells: CHO cell clone
T1 sequence (P17301 30-1181): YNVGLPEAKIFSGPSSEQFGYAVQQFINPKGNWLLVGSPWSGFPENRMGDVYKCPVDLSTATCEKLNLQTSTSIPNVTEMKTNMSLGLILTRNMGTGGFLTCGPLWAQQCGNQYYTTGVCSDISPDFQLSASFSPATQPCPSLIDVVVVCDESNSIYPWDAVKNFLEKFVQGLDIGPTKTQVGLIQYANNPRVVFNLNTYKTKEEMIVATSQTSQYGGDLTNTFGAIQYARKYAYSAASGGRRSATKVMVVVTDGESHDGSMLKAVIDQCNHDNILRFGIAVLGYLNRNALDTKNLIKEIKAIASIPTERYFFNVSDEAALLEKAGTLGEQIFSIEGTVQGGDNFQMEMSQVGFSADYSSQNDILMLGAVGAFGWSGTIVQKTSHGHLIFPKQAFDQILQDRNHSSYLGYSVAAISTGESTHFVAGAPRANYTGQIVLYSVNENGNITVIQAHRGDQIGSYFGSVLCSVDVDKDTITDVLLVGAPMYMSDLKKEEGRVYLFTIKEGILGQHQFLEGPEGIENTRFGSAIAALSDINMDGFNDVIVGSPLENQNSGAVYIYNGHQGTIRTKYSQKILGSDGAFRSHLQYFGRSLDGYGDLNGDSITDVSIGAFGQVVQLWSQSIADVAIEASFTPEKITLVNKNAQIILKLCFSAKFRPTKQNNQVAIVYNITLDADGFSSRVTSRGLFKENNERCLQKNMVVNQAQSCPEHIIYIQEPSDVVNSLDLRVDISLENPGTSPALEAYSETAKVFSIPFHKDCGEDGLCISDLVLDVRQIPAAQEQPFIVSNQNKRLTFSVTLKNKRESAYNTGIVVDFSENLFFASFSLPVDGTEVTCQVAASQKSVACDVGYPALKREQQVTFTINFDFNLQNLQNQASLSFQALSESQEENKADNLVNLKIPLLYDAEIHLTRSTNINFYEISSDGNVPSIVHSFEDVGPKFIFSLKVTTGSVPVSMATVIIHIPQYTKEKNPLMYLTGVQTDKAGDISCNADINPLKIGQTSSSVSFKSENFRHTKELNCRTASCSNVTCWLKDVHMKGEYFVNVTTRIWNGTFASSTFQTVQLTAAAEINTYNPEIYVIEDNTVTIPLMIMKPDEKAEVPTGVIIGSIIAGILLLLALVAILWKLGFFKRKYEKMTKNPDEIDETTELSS
Protocol: Chinese Hamster Ovary (CHO) cell clone expressing wild type α2 integrin was used in cell adhesion assay. Cells were suspended in serum free medium containing 0.1 mg/ml cycloheximide (Sigma) and the compounds were preincubated with the cells prior to transfer to the wells. Cells (150000/well) were allowed to attach on collagen type I coated wells (in the presence and absence of inhibitor compounds) for 2 h at +37° C. and after that non-adherent cells were removed. Fresh serum free medium was added and the living cells were detected using a cell viability kit (Roche) according to the manufacturer's protocol.

[2] = tested on: Prostate cancer cells (PC-3); test: Cell invasion assay: invasion of PC-3 cells through Matrigel; settings: Homo sapiens, PC-3, 72 h, read-out: EC50 in cell invasion (μM)
Protocol: Prostate cancer cells (PC-3) expressing α2β1 endogenously were used to test the in vitro anticancer potential of the inhibitors of the present invention.
Inserts were stored at −20° C. Before the experiments inserts were allowed to adjust to the room temperature. 500 μl of serum free media (Ham's F12K medium, 2 mM L-glutamine, 1.5 g/l sodium bicarbonate) was added into the inserts and allowed to rehydrate at 37° C. in cell incubator for two hours. The remaining media was aspirated. PC-3 cells were detached, pelleted and suspended into serum free media (50000 cells/500 μl). 300 μl of cell suspension was added into the insert in the absence (control) or presence of the inhibitor according to the present invention. Inserts were placed on the 24-well plates; each well containing 700 μl of cell culture media with 3% of fetal bovine serum as chemo-attractant. Cells were allowed to invade for 72 hours at 37° C. in cell incubator. Inserts were washed with 700 μl PBS, and fixed with 4% paraformaldehyde for 10 minutes. Paraformaldehyde was aspirated and cells were washed with 700 μl of PBS and inserts were stained by incubation with hematoxylin for 1 minute. The stain was removed by washing the inserts with 700 μl of PBS. Inserts were allowed to dry. Fixed invaded cells were calculated under the microscope. Invasion % was calculated as a comparison to the control.

[3] = tested on: platelet aggregation in whole blood; settings: PFA-100, collagen plus Epinephrin membrane, compared to control (DMSO), FIG. 1
Protocol: The PFA-100 is a high shear-inducing device that simulates primary haemostasis after injury of a small vessel. The system comprises a test-cartridge containing a biologically active membrane coated with collagen plus Epinephrin. An anticoaculated whole blood sample was run through a capillary under a constant vacuum. […] The time required to obtain full occlusion of the aperture was designated as the “closure time”. Each compound was added to the whole blood sample and the closure time was measured with PFA-100.
Blood was collected from a donor via venipuncture into evacuated blood collection tubes containing 3.2% buffered sodium sitrate as anticoagulant. Blood was aliquoted into 15 mL tubes and treated with either inhibitory compounds or controls (DMSO). Samples were kept at room temperature with rotation for 10 minutes and after that the closure time of the blood was measured.
Acquisitions resulting in a closure time exceeding the range of measurement of the instrument (>300 seconds) were assigned a value of 300 seconds. Mean and standard deviations were calculated for each treatment. Student's t-test was applied to the resultant data.

inhibition at 50 µM [1] | Structure (SMILES) | other results
22% | O=S(=O)(Nc1ccc(-c2cnco2)cc1)c1cccc(-c2ccc(F)cc2)c1 [Compound 378, 4′-fluoro-biphenyl-3-sulfonic acid (4-(1,3-oxazol-5-yl)-phenyl)-amide] | –
72% | O=C(c1ccccc1)c1cccc(NS(=O)(=O)c2cccc(-c3ccc(F)cc3)c2)c1 [Compound 432, 4′-fluoro-biphenyl-3-sulfonic acid (3-benzoyl-phenyl)-amide] | EC50 [2]: 1 µM
53% | CN(c1ccc(NC(=O)N2CCNC2=O)cc1)S(=O)(=O)c1cccc(-c2ccc(F)cc2)c1 [Compound 430, 2-oxo-imidazolidine-1-carboxylic acid {4-[(4′-fluoro-bi-phenyl-3-sulfonyl)-methyl-amino]-phenyl)-amide] | EC50 [2]: 12 µM
26% | CC(=O)c1ccc(NS(=O)(=O)c2cccc(-c3ccc(F)cc3)c2)cc1 [Compound 383, 4′-fluoro-biphenyl-3-sulfonic acid (4-acetyl-phenyl)-amide] | –
59% | O=[N+]([O-])c1ccc(NS(=O)(=O)c2cccc(-c3ccc(F)cc3)c2)cc1 [Compound 440, 4′-fluoro-biphenyl-3-sulfonic acid (4-nitro-phenyl)-amide] | EC50 [2]: 8.3 µM
42% | CN(C)c1ccc(N(CCO)S(=O)(=O)c2cccc(-c3ccc(F)cc3)c2)cc1 [Compound 359, 4′-fluoro-biphenyl-3-sulfonic acid (4-dimethylamino-phenyl)-(2-hydroxy-ethyl)-amide] | –
18% | CN(C)c1ccc(N(CCN2CCOCC2)S(=O)(=O)c2cccc(-c3ccc(F)cc3)c2)cc1 [Compound 355, 4′-fluoro-biphenyl-3-sulfonic acid (4-dimethylamino-phenyl)-(2-morpholin-4-yl-ethyl)-amide] | –
78% | CN(C)CCN(c1ccc(N(C)C)cc1)S(=O)(=O)c1cccc(-c2ccc(F)cc2)c1 [Compound 354, 4′-fluoro-biphenyl-3-sulfonic acid (2-dimethylamino-ethyl)-(4-dimethylamino-phenyl)-amide] | –
71% | CN(C)c1ccc(N(CCn2ccnc2)S(=O)(=O)c2cccc(-c3ccc(F)cc3)c2)cc1 [Compound 358, 4′-fluoro-biphenyl-3-sulfonic acid (4-dimethylamino-phenyl)-(2-imidazol-1-yl-ethyl)-amide] | –
21% | Cn1cccc1C(=O)Nc1ccc(NS(=O)(=O)c2cccc(-c3ccc(F)cc3)c2)cc1 [Compound 442, 1-methyl-1H-pyrrole-2-carboxylic acid [4-(4′-fluoro-bi-phenyl-3-sulfonylamino)-phenyl]-amide] | –
66% | O=C(c1ccc(F)cc1)c1ccc(NS(=O)(=O)c2cccc(-c3ccc(F)cc3)c2)cc1 [Compound 458, 4′-fluoro-biphenyl-3-sulfonic acid [4-((4-fluorophenyl)-4-carbonyl)-phenyl]-amide] | –
11% | COCCN(c1ccc(N(C)C)cc1)S(=O)(=O)c1cccc(-c2ccc(F)cc2)c1 [Compound 353, 4′-fluoro-biphenyl-3-sulfonic acid (4-dimethylamino-phenyl)-(2-methoxy-ethyl)-amide] | –
56% | O=S(=O)(Nc1cccc(-c2ccc(F)cc2)c1)c1ccc(Cl)cc1Cl [Compound 403, 2,4-cichlorophenylsulfonic acid (3-(4-fluorophenyl)phenyl)-amide] | –
– | O=C(c1ccccc1)c1ccc(NS(=O)(=O)c2cccc(-c3ccc(F)cc3)c2)cc1 [Compound 434, 4′-fluoro-biphenyl-3-sulfonic acid (4-benzoyl-phenyl)-amide sodium salt] | inhibition at 50 µM ([1]; CHO): 78%; closure time of the blood [3]: increase the closure time
58% | N#Cc1ccc(NS(=O)(=O)c2cccc(-c3ccc(F)cc3)c2)cc1 [Compound 448, 4′-fluoro-biphenyl-3-sulfonic acid (4-cyano-phenyl)-amide] | EC50 [2]: 27 µM
13% | Cc1cc(NC(=O)c2ccc(NS(=O)(=O)c3cccc(-c4ccc(F)cc4)c3)cc2)no1 [Compound 456, 4-(4′-fluoro-biphenyl-3-sulfonylamino)-N-(5-methyl-isoxazol-3-yl)-benzamide] | –

Structure (SMILES) | inhibition at 50 µM [1] | other results
O=C(c1ccccc1)c1ccc(NS(=O)(=O)c2cccc(-c3ccc(F)cc3)c2)cc1 [Compound 384, 4′-fluoro-biphenyl-3-sulfonic acid (4-benzoyl-phenyl)-amide] | 65% | –
